Assays:
[1] = species on record: Rattus norvegicus; assay: Biodistribution in rat post-CTX after 30 min time interval; format: ADME, organism-based; details: in vivo, 0.5 h
[2] = species on record: Rattus norvegicus; assay: Biodistribution in rat thalamus after 60 min time interval; format: ADME, organism-based; details: in vivo, 1 h
[3] = species on record: Rattus norvegicus; assay: Biodistribution in rat heart after 5 min time interval; format: ADME, organism-based; details: in vivo
[4] = species on record: Rattus norvegicus; assay: Biodistribution in rat pituitary after 5 min time interval; format: ADME, organism-based, Pituitary gland; details: in vivo
[5] = species on record: Rattus norvegicus; assay: Biodistribution in rat trachea after 60 min time interval; format: ADME, organism-based; details: in vivo, 1 h
[6] = species on record: Rattus norvegicus; assay: Biodistribution in rat thalamus after 90 min time interval; format: ADME, organism-based; details: in vivo, 1.5 h
[7] = species on record: Rattus norvegicus; assay: Biodistribution in rat pons after 60 min time interval; format: ADME, organism-based; details: in vivo, 1 h
[8] = species on record: Rattus norvegicus; assay: Biodistribution in rat blood after 30 min time interval; format: ADME, organism-based; details: in vivo, 0.5 h
[9] = species on record: Rattus norvegicus; assay: Biodistribution in rat hippocampus after 30 min time interval; format: ADME, organism-based; details: in vivo, 0.5 h
[10] = species on record: Rattus norvegicus; assay: Biodistribution in rat lung after 5 min time interval; format: ADME, organism-based; details: in vivo
[11] = species on record: Rattus norvegicus; assay: Biodistribution in rat trachea after 15 min time interval; format: ADME, organism-based; details: in vivo, 0.25 h
[12] = species on record: Rattus norvegicus; assay: Biodistribution in rat intestine after 30 min time interval; format: ADME, organism-based; details: in vivo, 0.5 h
[13] = species on record: Rattus norvegicus; assay: Biodistribution in rat liver after 30 min time interval; format: ADME, organism-based; details: in vivo, 0.5 h
[14] = species on record: Rattus norvegicus; assay: Biodistribution in rat trachea after 30 min time interval; format: ADME, organism-based; details: in vivo, 0.5 h
[15] = species on record: Rattus norvegicus; assay: Biodistribution in rat lung after 90 min time interval; format: ADME, organism-based; details: in vivo, 1.5 h
[16] = species on record: Rattus norvegicus; assay: Biodistribution in rat hypothalamus after 15 min time interval; format: ADME, organism-based; details: in vivo, 0.25 h
[17] = species on record: Rattus norvegicus; assay: Biodistribution in rat pons after 5 min time interval; format: ADME, organism-based; details: in vivo
[18] = species on record: Rattus norvegicus; assay: Biodistribution in rat hypothalamus after 90 min time interval; format: ADME, organism-based; details: in vivo, 1.5 h
[19] = species on record: Rattus norvegicus; assay: Biodistribution in rat striatum after 30 min time interval; format: ADME, organism-based; details: in vivo, 0.5 h
[20] = species on record: Rattus norvegicus; assay: Biodistribution in rat muscle after 90 min time interval; format: ADME, organism-based, Muscle tissue; details: in vivo, 1.5 h
[21] = species on record: Rattus norvegicus; assay: Biodistribution in rat lung after 15 min time interval; format: ADME, organism-based; details: in vivo, 0.25 h
[22] = species on record: Rattus norvegicus; assay: Biodistribution in rat adrenal after 5 min time interval; format: ADME, organism-based; details: in vivo
[23] = species on record: Rattus norvegicus; assay: Biodistribution in rat cerebellem after 30 min time interval; format: ADME, organism-based, Cerebellum; details: in vivo, 0.5 h
[24] = species on record: Rattus norvegicus; assay: Biodistribution in rat cerebellem after 5 min time interval; format: ADME, organism-based, Cerebellum; details: in vivo
[25] = species on record: Rattus norvegicus; assay: Biodistribution in rat pituitary after 60 min time interval; format: ADME, organism-based, Pituitary gland; details: in vivo, 1 h
[26] = species on record: Rattus norvegicus; assay: Biodistribution in rat hippocampus after 90 min time interval; format: ADME, organism-based; details: in vivo, 1.5 h
[27] = species on record: Rattus norvegicus; assay: Biodistribution in rat plasma after 60 min time interval; format: ADME, organism-based; details: in vivo, 1 h
[28] = species on record: Rattus norvegicus; assay: Biodistribution in rat heart after 15 min time interval; format: ADME, organism-based; details: in vivo, 0.25 h
[29] = species on record: Rattus norvegicus; assay: Biodistribution in rat intestine after 15 min time interval; format: ADME, organism-based; details: in vivo, 0.25 h
[30] = species on record: Rattus norvegicus; assay: Biodistribution in rat kidney after 90 min time interval; format: ADME, organism-based; details: in vivo, 1.5 h
[31] = species on record: Rattus norvegicus; assay: Biodistribution in rat adrenal after 15 min time interval; format: ADME, organism-based; details: in vivo, 0.25 h
[32] = species on record: Rattus norvegicus; assay: Biodistribution in rat spleen after 15 min time interval; format: ADME, organism-based; details: in vivo, 0.25 h
[33] = species on record: Rattus norvegicus; assay: Biodistribution in rat liver after 15 min time interval; format: ADME, organism-based; details: in vivo, 0.25 h
[34] = species on record: Rattus norvegicus; assay: Biodistribution in rat thalamus after 30 min time interval; format: ADME, organism-based; details: in vivo, 0.5 h
[35] = species on record: Rattus norvegicus; assay: Biodistribution in rat anti-CTX after 60 min time interval; format: ADME, organism-based; details: in vivo, 1 h
[36] = species on record: Rattus norvegicus; assay: Biodistribution in rat muscle after 15 min time interval; format: ADME, organism-based, Muscle tissue; details: in vivo, 0.25 h
[37] = species on record: Rattus norvegicus; assay: Biodistribution in rat adrenal after 30 min time interval; format: ADME, organism-based; details: in vivo, 0.5 h
[38] = species on record: Rattus norvegicus; assay: Biodistribution in rat blood after 60 min time interval; format: ADME, organism-based; details: in vivo, 1 h
[39] = species on record: Rattus norvegicus; assay: Biodistribution in rat kidney after 5 min time interval; format: ADME, organism-based; details: in vivo
[40] = species on record: Rattus norvegicus; assay: Biodistribution in rat anti-CTX after 5 min time interval; format: ADME, organism-based; details: in vivo
[41] = species on record: Rattus norvegicus; assay: Biodistribution in rat striatum after 5 min time interval; format: ADME, organism-based; details: in vivo
[42] = species on record: Rattus norvegicus; assay: Biodistribution in rat pons after 30 min time interval; format: ADME, organism-based; details: in vivo, 0.5 h
[43] = species on record: Rattus norvegicus; assay: Biodistribution in rat pituitary after 30 min time interval; format: ADME, organism-based, Pituitary gland; details: in vivo, 0.5 h
[44] = species on record: Rattus norvegicus; assay: Biodistribution in rat blood after 5 min time interval; format: ADME, organism-based; details: in vivo
[45] = species on record: Rattus norvegicus; assay: Biodistribution in rat liver after 5 min time interval; format: ADME, organism-based; details: in vivo
[46] = species on record: Rattus norvegicus; assay: Biodistribution in rat spleen after 5 min time interval; format: ADME, organism-based; details: in vivo
[47] = species on record: Rattus norvegicus; assay: Biodistribution in rat plasma after 90 min time interval; format: ADME, organism-based; details: in vivo, 1.5 h
[48] = species on record: Rattus norvegicus; assay: Biodistribution in rat hypothalamus after 30 min time interval; format: ADME, organism-based; details: in vivo, 0.5 h
[49] = species on record: Rattus norvegicus; assay: Biodistribution in rat pituitary after 15 min time interval; format: ADME, organism-based, Pituitary gland; details: in vivo, 0.25 h
[50] = species on record: Rattus norvegicus; assay: Biodistribution in rat kidney after 30 min time interval; format: ADME, organism-based; details: in vivo, 0.5 h

ID/g [1]: 0.05% | ID/g [2]: 0.02% | ID/g [3]: 0.26% | ID/g [4]: 0.18% | ID/g [5]: 0.04% | ID/g [6]: 0.02% | ID/g [7]: 0.02% | ID/g [8]: 0.06% | ID/g [9]: 0.04% | ID/g [10]: 0.38% | ID/g [11]: 0.12% | ID/g [12]: 0.25% | ID/g [13]: 0.52% | ID/g [14]: 0.09% | ID/g [15]: 0.23% | ID/g [16]: 0.07% | ID/g [17]: 0.2% | ID/g [18]: 0.02% | ID/g [19]: 0.2% | ID/g [20]: 0.02% | ID/g [21]: 0.52% | ID/g [22]: 0.85% | ID/g [23]: 0.05% | ID/g [24]: 0.19% | ID/g [25]: 0.02% | ID/g [26]: 0.02% | ID/g [27]: 0.07% | ID/g [28]: 0.15% | ID/g [29]: 0.28% | ID/g [30]: 0.11% | ID/g [31]: 0.44% | ID/g [32]: 0.12% | ID/g [33]: 0.74% | ID/g [34]: 0.05% | ID/g [35]: 0.02% | ID/g [36]: 0.11% | ID/g [37]: 0.25% | ID/g [38]: 0.03% | ID/g [39]: 0.69% | ID/g [40]: 0.18% | ID/g [41]: 0.43% | ID/g [42]: 0.06% | ID/g [43]: 0.05% | ID/g [44]: 0.13% | ID/g [45]: 0.94% | ID/g [46]: 0.18% | ID/g [47]: 0.07% | ID/g [48]: 0.04% | ID/g [49]: 0.06% | ID/g [50]: 0.24%
SMILES: [11CH3]Oc1ccc(CCCn2ncc3c2nc(N)n2nc(-c4ccco4)nc32)cc1

From ChEMBL document CHEMBL1133517, “Design, radiosynthesis, and biodistribution of a new potent and selective ligand for in vivo imaging of the adenosine A(2A) receptor system using positron emission tomography” (J Med Chem, 2000)
